Assay [1] has as its target T1, respiratory complex I (mitochondrial complex I) (Mus musculus, UniProt P03888+Q91WD5+Q9DC70).
T1 construct: gene Ndufs2; native complex in mouse liver mitochondrial lysate
The assay is described as follows: NADH oxidation (A340) in mouse liver mitochondrial lysate; succinate rescue of respiration in isolated mitochondria. It counts as biochemical.

Assay [2] concerns the target T1, respiratory complex I (mitochondrial complex I). The assay is described as follows: NADH oxidation (A340) in mouse liver mitochondrial lysate. It counts as biochemical.

For orientation: IC50 means the midpoint of a concentration-inhibition curve. A higher IC50 goes with weaker potency in that assay. `COc1ccc(C(=O)C2CCN(C(=O)c3ccc(C(=O)NC4CCN(Cc5ccc(C#N)cc5)CC4)cn3)CC2)cc1` [R419, N-(1-(4-cyanobenzyl)piperidin-4-yl)-6-(4-(4-methoxybenzoyl)piperidine-1-carbonyl)nicotinamide]: in assay [1], half-maximal inhibition (IC50) was put at 82 nM. The compound `CN(C)C(=N)N=C(N)N` [metformin] gave an IC50 in assay [2] of 27 mM.

These data come from publication PMC3855387, “AMPK Activation through Mitochondrial Regulation Results in Increased Substrate Oxidation and Improved Metabolic Parameters in Models of Diabetes” (PLoS ONE, 2013).
